From ChEMBL document CHEMBL1201862, “PubChem BioAssay data set” (2004)
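Protocol summary: plate cells (96-well), add compound at 5 concentrations, incubate 48 h, interpolate endpoints linearly. GI50: concentration for 50% inhibition of growth.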 Active and inactive are the calls of the source. No stated cut-off is given here; in the data, active = GI50 up to about 1.1 µM and inactive = higher.

Experiments:
Assay in all cases: NCI anticancer screen, dose series, 48 h
[1] = test system: SF-295
[2] = test system: SK-MEL-5
[3] = test system: SK-MEL-2
[4] = test system: HOP-92
[5] = test system: MDA-N
[6] = test system: OVCAR-5
[7] = test system: M14
[8] = test system: UACC-62
[9] = test system: T47D
[10] = test system: Hs-578T
[11] = test system: HT-29
[12] = test system: HCC 2998
[13] = test system: A498
[14] = test system: SF-268
[15] = test system: MOLT-4
[16] = test system: SNB-75
[17] = test system: TK-10
[18] = test system: UO-31
[19] = test system: RXF 393

Measured: GI50

COc1ccc(C2=C(N)c3cc(OC)ccc3C2=O)cc1
inactive: [1] > 100 µM | [2] > 100 µM | [3] > 100 µM | [4] > 100 µM | [5] > 100 µM | [6] > 100 µM | [7] > 100 µM | [8] > 100 µM | [9] 36.7 µM | [10] 4.25 µM | [11] > 100 µM | [12] > 100 µM | [13] > 100 µM | [14] 47.3 µM | [15] > 100 µM | [16] 16.1 µM

C[C@@H](C1CC[C@H]2[C@@H]3[C@@H]4O[C@@H]4[C@@]4(O)CC=CC(=O)[C@]4(C)[C@H]3C[C@H](O)[C@]12C)[C@H]1C[C@]2(C)O[C@]2(C)C(=O)O1 (some centres not stated)
inactive: [1] > 100 µM | [17] > 100 µM | [2] > 100 µM | [3] > 100 µM | [4] > 100 µM | [5] > 100 µM | [6] > 100 µM | [7] > 100 µM | [8] > 100 µM | [9] > 100 µM | [10] > 100 µM | [11] > 100 µM | [12] > 100 µM | [13] > 100 µM | [14] > 100 µM | [18] > 100 µM | [15] > 100 µM | [16] > 100 µM

COc1ccccc1-n1nnc2c(N)nc(N)nc21
inactive: [1] > 100 µM | [17] > 100 µM | [2] > 100 µM | [3] > 100 µM | [4] > 100 µM | [5] > 100 µM | [6] > 100 µM | [7] > 100 µM | [8] > 100 µM | [9] > 100 µM | [10] > 100 µM | [11] > 100 µM | [13] > 100 µM | [14] > 100 µM | [18] > 100 µM | [15] > 100 µM | [16] > 100 µM

O=C(O)c1nnsc1-c1ccc(-c2snnc2C(=O)O)cc1
inactive: [1] > 100 µM | [17] > 100 µM | [2] > 100 µM | [3] > 100 µM | [4] 68.4 µM | [5] > 100 µM | [6] > 100 µM | [19] > 100 µM | [7] > 100 µM | [8] > 100 µM | [9] > 100 µM | [10] > 100 µM | [11] > 100 µM | [13] > 100 µM | [14] > 100 µM | [18] > 100 µM | [15] 17.4 µM | [16] > 100 µM

CC(C)(C)CC(N)=O
inactive: [1] > 100 µM | [17] > 100 µM | [2] > 100 µM | [3] > 100 µM | [4] > 100 µM | [5] > 100 µM | [6] > 100 µM | [7] > 100 µM | [8] > 100 µM | [9] > 100 µM | [10] > 100 µM | [11] > 100 µM | [12] > 100 µM | [13] > 100 µM | [14] > 100 µM | [18] > 100 µM | [15] > 10 µM | [16] > 100 µM

Cc1nn(-c2cc(Cl)ccc2[N+](=O)[O-])c(C)c1Cl
inactive: [1] > 100 µM | [17] > 100 µM | [2] 81.7 µM | [3] > 100 µM | [5] > 100 µM | [6] > 100 µM | [19] 2.72 µM | [7] > 100 µM | [8] > 100 µM | [9] 38.2 µM | [10] > 100 µM | [11] > 100 µM | [12] 38.6 µM | [13] > 100 µM | [14] > 100 µM | [18] 20.8 µM | [15] 13.6 µM | [16] 86.5 µM

O=C(NNC(=S)NC1CCCCC1)C12CC3CC(CC(C3)C1)C2
inactive: [1] > 100 µM | [17] > 100 µM | [2] > 100 µM | [3] > 100 µM | [5] > 100 µM | [6] > 100 µM | [19] > 100 µM | [7] > 100 µM | [8] > 100 µM | [9] > 100 µM | [10] > 100 µM | [11] > 100 µM | [12] > 100 µM | [13] > 100 µM | [14] > 100 µM | [18] > 100 µM | [15] > 100 µM | [16] 52.2 µM

S=c1c2cc(I)ccc2nc(S)n1Cc1ccccc1
inactive: [1] 2.99 µM | [17] 4.55 µM | [2] 3.17 µM | [3] 3.14 µM | [4] 2.69 µM | [5] 3.83 µM | [6] 17 µM | [19] 2.17 µM | [7] 3.9 µM | [9] 1.5 µM | [10] 7.16 µM | [11] 18.4 µM | [13] 3.33 µM | [14] 6.43 µM | [18] 3.37 µM | [15] 3.18 µM | [16] 2.69 µM

CC(C)Nc1n[nH]c(=O)n1C(C)C
inactive: [1] > 100 µM | [17] > 100 µM | [2] > 100 µM | [3] > 100 µM | [4] > 100 µM | [5] > 100 µM | [6] > 100 µM | [7] > 100 µM | [8] > 100 µM | [9] > 100 µM | [10] 49.9 µM | [11] > 100 µM | [13] > 100 µM | [14] > 100 µM | [18] > 100 µM | [15] > 100 µM | [16] 99.3 µM

C/C(=C/CC[C@]1(CO)CC[C@]2(C)[C@H](CC[C@@H]3[C@@]4(C)CC[C@H](OC5OC(CO)C(O)C(O)C5OC5OC(CO)C(O)C(O)C5O)C(C)(C)[C@@H]4CC[C@]32C)[C@H]1O)CO (some centres not stated)
inactive: [1] > 100 µM | [17] > 100 µM | [2] > 100 µM | [4] > 100 µM | [5] > 100 µM | [6] > 100 µM | [19] > 100 µM | [7] > 100 µM | [8] > 100 µM | [9] > 100 µM | [10] > 100 µM | [11] > 100 µM | [13] > 100 µM | [14] > 100 µM | [18] > 100 µM | [15] > 100 µM | [16] > 100 µM

CCCCS(=O)(=O)CCC(N)C(=O)O (configuration not stated)
inactive: [1] > 100 µM | [17] > 100 µM | [2] > 100 µM | [3] > 100 µM | [5] > 100 µM | [6] > 100 µM | [19] 36.1 µM | [7] > 100 µM | [8] > 100 µM | [9] > 100 µM | [10] > 100 µM | [11] > 100 µM | [12] > 100 µM | [13] > 100 µM | [14] > 100 µM | [18] > 100 µM | [15] > 100 µM | [16] > 100 µM
